In ChEMBL document CHEMBL1201862, “PubChem BioAssay data set” (2004):
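1) Cells in 96-well plates. 2) Compound, 48 h, 5 concentrations. 3) Linear interpolation between surrounding doses. 4) Unreached endpoint = highest concentration. GI50 = concentration required for 50% inhibition of growth.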 The source made the active and inactive calls. Cut-off read from the data, not from the text of the source: active = GI50 up to about 1.1 µM and inactive = higher.

Tests used:
Test in all cases: DTP human tumour cell line panel, 48 h
K562 = system: K562
SN12C = system: SN12C
OVCAR-8 = system: OVCAR-8
SNB-19 = system: SNB-19
NCI-H23 = system: NCI-H23
SK-MEL-5 = system: SK-MEL-5
SR = system: SR
Malme-3M = system: Malme-3M
HOP-62 = system: HOP-62
RXF 393 = system: RXF 393
CCRF-CEM = system: CCRF-CEM
HL-60 = system: HL-60
IGROV-1 = system: IGROV-1
786-0 = system: 786-0
NCI/ADR-RES = system: NCI/ADR-RES
UACC-62 = system: UACC-62
RPMI-8226 = system: RPMI-8226
SF-268 = system: SF-268
OVCAR-3 = system: OVCAR-3
SNB-75 = system: SNB-75

Compound | GI50 (K562) | GI50 (SN12C) | GI50 (OVCAR-8) | GI50 (SNB-19) | GI50 (NCI-H23) | GI50 (SK-MEL-5) | GI50 (SR) | GI50 (Malme-3M) | GI50 (HOP-62) | GI50 (RXF 393) | GI50 (CCRF-CEM) | GI50 (HL-60) | GI50 (IGROV-1) | GI50 (786-0) | GI50 (NCI/ADR-RES) | GI50 (UACC-62) | GI50 (RPMI-8226) | GI50 (SF-268) | GI50 (OVCAR-3) | GI50 (SNB-75)
CCCC(c1cc(C(C)(C)C)c(O)cc1C)c1cc(C(C)(C)C)c(O)cc1C | 2.23 µM (inactive) | 1.94 µM (inactive) | 4.03 µM (inactive) | 4.99 µM (inactive) | 2.65 µM (inactive) | 1.77 µM (inactive) | 2.26 µM (inactive) | 3.05 µM (inactive) | 3.05 µM (inactive) | 1.99 µM (inactive) | 2.71 µM (inactive) | 2.27 µM (inactive) | 4.04 µM (inactive) | 2.31 µM (inactive) | 3.4 µM (inactive) | 2.09 µM (inactive) | 2.24 µM (inactive) | 4.4 µM (inactive) | 1.81 µM (inactive) | 
O=[N+]([O-])C(/C=C(\Cl)n1nnc2ccccc21)=C(/Cl)n1nnc2ccccc21 | > 100 µM (inactive) | > 100 µM (inactive) |  | > 100 µM (inactive) | > 100 µM (inactive) | > 100 µM (inactive) | > 100 µM (inactive) | > 100 µM (inactive) | > 100 µM (inactive) | > 100 µM (inactive) | 76.4 µM (inactive) |  | > 100 µM (inactive) | > 100 µM (inactive) | > 100 µM (inactive) | > 100 µM (inactive) | > 100 µM (inactive) | > 100 µM (inactive) | > 100 µM (inactive) | 
CSc1nc(C#N)c(N)n1C | > 100 µM (inactive) | > 100 µM (inactive) | > 100 µM (inactive) | > 100 µM (inactive) | > 100 µM (inactive) | > 100 µM (inactive) | > 100 µM (inactive) | > 100 µM (inactive) | > 100 µM (inactive) | > 100 µM (inactive) | > 100 µM (inactive) | > 100 µM (inactive) | > 100 µM (inactive) | > 100 µM (inactive) | > 100 µM (inactive) | > 100 µM (inactive) | > 100 µM (inactive) | > 100 µM (inactive) | > 100 µM (inactive) | 
CC(=O)Nc1ccc2c(C)c3c4ccccc4n(C)c3nc2n1 |  | 16.4 µM (inactive) | 17.9 µM (inactive) | 39.1 µM (inactive) | 19.3 µM (inactive) | 9.29 µM (inactive) | 10.6 µM (inactive) |  | 14.3 µM (inactive) | 16.1 µM (inactive) | 18.7 µM (inactive) | 12.9 µM (inactive) | 28.1 µM (inactive) | 8.17 µM (inactive) | 22.3 µM (inactive) | 20.1 µM (inactive) |  | 17.8 µM (inactive) | 26.1 µM (inactive) | 14.4 µM (inactive)
CC(=O)O[C@@H]1C(=O)N(c2ccccc2)[C@@H]1c1cc2ccccc2c2ccccc12 | 36.6 µM (inactive) | 34.4 µM (inactive) | 24.5 µM (inactive) | 73.3 µM (inactive) | 20.2 µM (inactive) | 23.2 µM (inactive) | 15.5 µM (inactive) | 22.9 µM (inactive) | 29.6 µM (inactive) | 15 µM (inactive) | 25.6 µM (inactive) | 26.4 µM (inactive) | 21.6 µM (inactive) | 42.2 µM (inactive) | 33.9 µM (inactive) | 22.8 µM (inactive) | 21.3 µM (inactive) | 44.3 µM (inactive) | 23.2 µM (inactive) | 
CC(C)(C)OC(=O)NCC(CNC(=O)OC(C)(C)C)c1nc(C(N)=O)cs1 | > 100 µM (inactive) | > 100 µM (inactive) | > 100 µM (inactive) | > 100 µM (inactive) | > 100 µM (inactive) | > 100 µM (inactive) | > 100 µM (inactive) | > 100 µM (inactive) | > 100 µM (inactive) | > 100 µM (inactive) | > 100 µM (inactive) | > 100 µM (inactive) | > 100 µM (inactive) | > 100 µM (inactive) | > 100 µM (inactive) | > 100 µM (inactive) |  |  | > 100 µM (inactive) | 0.818 µM (active)
OC(c1cc2ccccc2[nH]1)C1(c2cccnc2)SCCCS1 (stereo unspecified) | 27.2 µM (inactive) | 99.3 µM (inactive) | 63.8 µM (inactive) | > 100 µM (inactive) | 35.6 µM (inactive) | 43.6 µM (inactive) | 41.8 µM (inactive) | 87.3 µM (inactive) | 50.2 µM (inactive) | 31.8 µM (inactive) |  | 26.2 µM (inactive) | 53.8 µM (inactive) | 97.3 µM (inactive) | 53.3 µM (inactive) | 50.9 µM (inactive) |  | 43.3 µM (inactive) |  | 73.6 µM (inactive)
